Each structure is given as a SMILES string.

What all share (assay): In-vitro kinase profiling, radioisotope screening assay (Signal Chem)
Assay type in all cases: biochemical

One assay concerns the target T1, PKCη (Homo sapiens, UniProt P24723).
T1 construct: purchased Signal Chem (Richmond, BC, Canada)
The conditions noted are these: 5 μM compound, 50 μM ATP, vs vehicle control; negative = inhibition. The protocol: (§1) Kinase profiling of PK analogs. The inhibitory effect of lead PK analogs were tested against a panel of 15 protein kinase targets (TABLE 1) to develop better lead candidates without “off” target effects. The selectivity assay was performed at Signal Chem™ (Richmond, BC, Canada) by profiling against protein kinase targets using the “Gold Standard” radioisotope screening assay format. This assay format gave the highest signal noise ratio and allowed the direct measurement of catalytic activity of a protein kinase.
(§2) All assays were performed in triplicate in a 96-well assay format and the % error between triplicates is <10%. Protein kinase assays was performed in the presence of 50 μM ATP at 30° C. for 15 min. The activity of the enzymes in the presence of 5 μM PK analogs was compared to that in the vehicle control and expressed as a percent change in activity relative to that observed in the vehicle control. In TABLE 1, the results are expressed as percent activity change compared to control. The intra-assay variability was determined to be less than 10%. Inhibition of target activity by the compound is shown by a negative value, while activation of target activity is shown by positive value, with values >10% considered to be highly significant.

A further assay deals with T2, PKCε (Homo sapiens, UniProt Q02156).
T2 construct: purchased Signal Chem (Richmond, BC, Canada)
T2 sequence (Q02156 1-737): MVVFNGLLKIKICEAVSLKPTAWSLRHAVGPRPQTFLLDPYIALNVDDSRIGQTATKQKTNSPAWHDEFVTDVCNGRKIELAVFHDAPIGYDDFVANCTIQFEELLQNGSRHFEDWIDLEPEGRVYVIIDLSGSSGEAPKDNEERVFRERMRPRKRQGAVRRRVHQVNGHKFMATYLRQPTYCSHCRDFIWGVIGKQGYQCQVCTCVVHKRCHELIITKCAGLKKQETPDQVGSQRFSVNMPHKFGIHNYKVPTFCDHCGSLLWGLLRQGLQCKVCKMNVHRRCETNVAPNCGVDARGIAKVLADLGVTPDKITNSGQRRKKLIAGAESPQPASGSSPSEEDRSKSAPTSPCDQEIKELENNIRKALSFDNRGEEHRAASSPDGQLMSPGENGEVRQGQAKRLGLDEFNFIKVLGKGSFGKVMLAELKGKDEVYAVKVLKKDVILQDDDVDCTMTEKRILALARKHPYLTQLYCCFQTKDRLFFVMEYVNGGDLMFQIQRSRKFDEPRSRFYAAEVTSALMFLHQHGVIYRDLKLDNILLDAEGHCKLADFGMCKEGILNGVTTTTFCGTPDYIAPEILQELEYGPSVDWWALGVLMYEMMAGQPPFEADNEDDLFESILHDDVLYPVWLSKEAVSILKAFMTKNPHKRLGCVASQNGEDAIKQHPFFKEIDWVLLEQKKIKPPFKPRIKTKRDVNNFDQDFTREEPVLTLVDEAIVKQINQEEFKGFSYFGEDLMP
The conditions noted are these: for % activity change: 5 μM compound, 50 μM ATP, vs vehicle control, negative = inhibition. As for the experimental part:
as §1, §2

The target of another assay is T3, P13K (p110b/p85a) (Homo sapiens, UniProt P42338).
T3 construct: purchased Signal Chem (Richmond, BC, Canada)
The conditions noted are these: 5 μM compound, 50 μM ATP, vs vehicle control; negative = inhibition. The protocol: as §1, §2

The target of the next assay is T4, PKCγ (Homo sapiens, UniProt P05129).
T4 construct: purchased Signal Chem (Richmond, BC, Canada)
The conditions noted are these: 5 μM compound, 50 μM ATP, vs vehicle control; negative = inhibition. As for the experimental part: as §1, §2

A further assay addresses T5, ASK1 (Homo sapiens, UniProt Q99683).
T5 construct: purchased Signal Chem (Richmond, BC, Canada)
T5 sequence (Q99683 1-1374): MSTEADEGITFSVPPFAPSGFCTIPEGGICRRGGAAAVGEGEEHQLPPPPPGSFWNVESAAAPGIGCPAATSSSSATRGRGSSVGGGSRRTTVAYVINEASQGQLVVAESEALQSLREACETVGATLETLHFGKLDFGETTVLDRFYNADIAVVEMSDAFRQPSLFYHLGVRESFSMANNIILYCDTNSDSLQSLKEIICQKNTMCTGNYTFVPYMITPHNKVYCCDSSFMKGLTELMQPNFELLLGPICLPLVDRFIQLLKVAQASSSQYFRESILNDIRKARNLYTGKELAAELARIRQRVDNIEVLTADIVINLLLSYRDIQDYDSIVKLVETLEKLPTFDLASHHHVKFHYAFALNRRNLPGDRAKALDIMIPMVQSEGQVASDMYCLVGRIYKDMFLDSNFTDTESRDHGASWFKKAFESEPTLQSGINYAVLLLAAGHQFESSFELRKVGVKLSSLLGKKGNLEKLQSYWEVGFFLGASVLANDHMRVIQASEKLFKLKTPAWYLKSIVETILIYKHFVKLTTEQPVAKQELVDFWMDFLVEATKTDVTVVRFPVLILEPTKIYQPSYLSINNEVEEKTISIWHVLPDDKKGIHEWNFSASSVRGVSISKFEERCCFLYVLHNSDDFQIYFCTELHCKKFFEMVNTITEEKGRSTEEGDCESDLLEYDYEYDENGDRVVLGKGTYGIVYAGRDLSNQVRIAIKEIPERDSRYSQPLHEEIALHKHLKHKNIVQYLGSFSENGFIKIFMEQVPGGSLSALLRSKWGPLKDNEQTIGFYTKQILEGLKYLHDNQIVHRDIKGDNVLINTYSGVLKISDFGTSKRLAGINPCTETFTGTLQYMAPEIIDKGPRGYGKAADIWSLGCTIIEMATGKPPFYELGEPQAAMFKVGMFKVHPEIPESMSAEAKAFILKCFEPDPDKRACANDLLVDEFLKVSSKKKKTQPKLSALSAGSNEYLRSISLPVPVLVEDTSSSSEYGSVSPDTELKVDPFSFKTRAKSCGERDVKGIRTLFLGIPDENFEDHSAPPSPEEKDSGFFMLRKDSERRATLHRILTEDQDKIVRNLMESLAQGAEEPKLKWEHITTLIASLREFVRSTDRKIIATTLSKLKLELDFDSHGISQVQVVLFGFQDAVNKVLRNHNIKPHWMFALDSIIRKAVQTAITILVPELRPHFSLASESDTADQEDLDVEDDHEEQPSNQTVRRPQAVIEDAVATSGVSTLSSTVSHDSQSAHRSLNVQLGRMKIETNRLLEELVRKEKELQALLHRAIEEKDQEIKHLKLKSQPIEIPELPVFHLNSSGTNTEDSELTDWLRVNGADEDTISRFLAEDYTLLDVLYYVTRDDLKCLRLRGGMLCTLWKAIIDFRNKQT
The conditions noted are these: 5 μM compound, 50 μM ATP, vs vehicle control; negative = inhibition. As for the experimental part: as §1, §2

T3 sequence (P42338 whole entry, stated change not applied): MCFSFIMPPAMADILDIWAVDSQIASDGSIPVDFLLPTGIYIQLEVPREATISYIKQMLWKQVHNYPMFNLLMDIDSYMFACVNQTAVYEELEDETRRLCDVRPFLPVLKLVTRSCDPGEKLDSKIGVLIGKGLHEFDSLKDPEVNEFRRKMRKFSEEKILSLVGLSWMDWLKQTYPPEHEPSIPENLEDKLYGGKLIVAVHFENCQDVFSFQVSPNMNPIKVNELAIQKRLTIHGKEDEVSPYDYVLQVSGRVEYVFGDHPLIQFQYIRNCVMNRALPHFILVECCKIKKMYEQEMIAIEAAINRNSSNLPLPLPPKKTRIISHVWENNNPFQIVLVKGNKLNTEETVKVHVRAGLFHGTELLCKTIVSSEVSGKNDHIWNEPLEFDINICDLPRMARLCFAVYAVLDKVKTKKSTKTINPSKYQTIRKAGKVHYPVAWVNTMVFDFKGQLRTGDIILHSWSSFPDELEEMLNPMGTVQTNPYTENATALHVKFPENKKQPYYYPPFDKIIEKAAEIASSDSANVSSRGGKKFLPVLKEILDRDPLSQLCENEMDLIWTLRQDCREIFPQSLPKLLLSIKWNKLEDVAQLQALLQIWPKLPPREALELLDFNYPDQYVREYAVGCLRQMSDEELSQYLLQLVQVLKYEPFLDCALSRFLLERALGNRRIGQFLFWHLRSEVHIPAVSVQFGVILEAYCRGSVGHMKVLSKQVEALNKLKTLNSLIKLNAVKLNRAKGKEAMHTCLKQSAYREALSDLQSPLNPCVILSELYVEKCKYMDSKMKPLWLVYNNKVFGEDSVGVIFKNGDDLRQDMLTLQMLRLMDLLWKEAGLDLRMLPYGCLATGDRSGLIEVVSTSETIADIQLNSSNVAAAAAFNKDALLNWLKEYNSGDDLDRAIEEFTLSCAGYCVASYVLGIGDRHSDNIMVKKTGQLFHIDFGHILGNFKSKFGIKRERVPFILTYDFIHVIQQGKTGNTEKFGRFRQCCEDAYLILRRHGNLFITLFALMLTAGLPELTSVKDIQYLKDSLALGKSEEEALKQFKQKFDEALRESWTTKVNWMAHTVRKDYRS
T3 sequence (P27986 2-724 partner): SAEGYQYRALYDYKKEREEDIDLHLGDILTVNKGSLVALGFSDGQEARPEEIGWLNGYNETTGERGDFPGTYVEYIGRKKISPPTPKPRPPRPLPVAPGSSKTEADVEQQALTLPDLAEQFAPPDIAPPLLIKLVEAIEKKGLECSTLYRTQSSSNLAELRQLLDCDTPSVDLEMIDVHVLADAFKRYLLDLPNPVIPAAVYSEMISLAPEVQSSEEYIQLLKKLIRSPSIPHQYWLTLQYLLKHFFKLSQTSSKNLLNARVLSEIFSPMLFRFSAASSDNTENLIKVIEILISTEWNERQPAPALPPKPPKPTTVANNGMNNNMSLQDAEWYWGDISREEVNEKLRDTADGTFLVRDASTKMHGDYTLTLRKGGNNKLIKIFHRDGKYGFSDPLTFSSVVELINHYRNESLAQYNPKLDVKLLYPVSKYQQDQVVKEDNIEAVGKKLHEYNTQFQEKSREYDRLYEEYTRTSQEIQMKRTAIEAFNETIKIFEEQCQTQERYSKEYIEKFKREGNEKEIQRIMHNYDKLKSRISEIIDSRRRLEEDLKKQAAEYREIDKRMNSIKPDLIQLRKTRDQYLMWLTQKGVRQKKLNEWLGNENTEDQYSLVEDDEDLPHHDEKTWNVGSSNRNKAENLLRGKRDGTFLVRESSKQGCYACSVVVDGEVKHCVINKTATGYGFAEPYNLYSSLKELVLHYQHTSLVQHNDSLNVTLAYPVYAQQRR
T1 sequence (P24723 whole entry): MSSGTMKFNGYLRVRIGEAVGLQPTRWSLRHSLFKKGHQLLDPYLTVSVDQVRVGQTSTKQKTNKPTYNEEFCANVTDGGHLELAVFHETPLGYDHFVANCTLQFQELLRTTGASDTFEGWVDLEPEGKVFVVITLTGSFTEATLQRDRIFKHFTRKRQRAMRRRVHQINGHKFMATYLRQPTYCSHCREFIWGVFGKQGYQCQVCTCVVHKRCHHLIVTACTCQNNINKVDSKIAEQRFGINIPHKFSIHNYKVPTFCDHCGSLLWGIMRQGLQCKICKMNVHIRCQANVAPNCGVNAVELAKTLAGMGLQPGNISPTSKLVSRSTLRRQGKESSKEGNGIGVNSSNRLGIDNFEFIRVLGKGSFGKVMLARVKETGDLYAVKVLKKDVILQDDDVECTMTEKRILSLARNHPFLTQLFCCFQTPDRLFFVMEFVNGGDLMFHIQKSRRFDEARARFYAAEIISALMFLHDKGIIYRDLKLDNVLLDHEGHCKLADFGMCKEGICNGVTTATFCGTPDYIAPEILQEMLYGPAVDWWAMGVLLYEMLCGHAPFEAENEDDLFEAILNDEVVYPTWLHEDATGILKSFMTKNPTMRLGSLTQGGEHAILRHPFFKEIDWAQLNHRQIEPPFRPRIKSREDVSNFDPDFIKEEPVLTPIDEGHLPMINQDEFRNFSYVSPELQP

Turning to `CC(=O)c1c(O)c(C)c(O)c(Cc2c(O)c3c(c(C(=O)/C=C/c4ccccc4)c2O)OC(C)(C)C=C3)c1O` [Rottlerin, (E)-1-[6-[(3-acetyl-2,4,6-trihydroxy-5-methylphenyl)methyl]-5,7-dihydroxy-2,2-dimethylchromen-8-yl]-3-phenylprop-2-en-1-one], the “% activity change” value on PKCη is on record as 12%; at PKCε, −25%; at P13K (p110b/p85a) it was −10%; on PKCγ, 6%; at ASK1, 2%. Moreover, the inhibition at 5 µM on PKCε (5 μM concentration, given as positive inhibition, read-out: inhibited by % compared to control) is 25%.

For the molecule `CC1(C)C=Cc2c(O)cc(O)c(C(=O)/C=C/c3ccccc3)c2O1` [PK302], the “% activity change” value on PKCη is given as 19%; at PKCε, 6%; at P13K (p110b/p85a), −8%; at PKCγ, 32%; at ASK1 it was 0%.

`Oc1cc(O)c(Cc2c(O)cc(O)cc2O)c(O)c1` [PK103]: the “% activity change” value at PKCη is listed as 7%; at PKCε, 5%; at P13K (p110b/p85a), −6%; at PKCγ, 9%; on ASK1, 0%.

As for `CC(=O)c1c(O)c(C)c(O)c(Cc2c(O)c3c(c4c2OC(c2ccccc2)CC4=O)OC(C)(C)C=C3)c1O` (stereo not drawn) [PK202], the “% activity change” value was 15% on PKCη; −3% at PKCε; −2% at P13K (p110b/p85a); 1% at PKCγ; 4% at ASK1.

The record behind these values is patent publication US8586768B2, “Design, synthesis and functional characterization of rottlerin analogs” (priority 2009, dated 2013).
